Measured values taken from PubChem BioAssay (NCI).
Where “and” joins values, the source holds several entries; their conditions need not be identical. Equal values may be shown once.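 Where inhibition never reached the appropriate level, the endpoint shown equals the highest concentration tested. Otherwise, values were interpolated linearly from a five-concentration, 48-hour dose response in 96-well plates. Abbreviation: GI50, concentration required for 50% inhibition of growth. The concentration for full growth arrest is given as TGI.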

Columns and labels:
Test in all cases: DTP human tumour cell line panel, 48 h
SK-MEL-28 melanoma = test system: SK-MEL-28 melanoma
OVCAR-8 ovarian = test system: OVCAR-8 ovarian
NCI/ADR-RES ovarian = test system: NCI/ADR-RES ovarian
NCI-H23 lung = test system: NCI-H23 lung
TK-10 renal = test system: TK-10 renal
T-47D breast = test system: T-47D breast
MCF7 breast = test system: MCF7 breast
M14 melanoma = test system: M14 melanoma
SF-539 CNS = test system: SF-539 CNS
MALME-3M melanoma = test system: MALME-3M melanoma
MDA-MB-231 breast = test system: MDA-MB-231 breast
BT-549 breast = test system: BT-549 breast
SNB-75 CNS = test system: SNB-75 CNS
OVCAR-4 ovarian = test system: OVCAR-4 ovarian
K-562 leukemia = test system: K-562 leukemia
HCT-15 colon = test system: HCT-15 colon
SN12C renal = test system: SN12C renal
RPMI-8226 leukemia = test system: RPMI-8226 leukemia
UACC-62 melanoma = test system: UACC-62 melanoma
MOLT-4 leukemia = test system: MOLT-4 leukemia
UO-31 renal = test system: UO-31 renal
786-0 renal = test system: 786-0 renal
SK-MEL-5 melanoma = test system: SK-MEL-5 melanoma
RXF 393 renal = test system: RXF 393 renal
CAKI-1 renal = test system: CAKI-1 renal
MDA-MB-435 = test system: MDA-MB-435
NCI-H460 lung = test system: NCI-H460 lung
SR leukemia = test system: SR leukemia
OVCAR-5 ovarian = test system: OVCAR-5 ovarian
MDA-N = test system: MDA-N
HOP-92 NSCLC = test system: HOP-92 NSCLC
ACHN renal = test system: ACHN renal
A498 renal = test system: A498 renal
CCRF-CEM leukemia = test system: CCRF-CEM leukemia
SF-295 CNS = test system: SF-295 CNS
SW-620 colon = test system: SW-620 colon
HCT-116 colon = test system: HCT-116 colon
HS 578T breast = test system: HS 578T breast
COLO 205 colon = test system: COLO 205 colon
EKVX NSCLC = test system: EKVX NSCLC
HCC-2998 colon = test system: HCC-2998 colon
UACC-257 melanoma = test system: UACC-257 melanoma
NCI-H522 lung = test system: NCI-H522 lung
SK-MEL-2 melanoma = test system: SK-MEL-2 melanoma
OVCAR-3 ovarian = test system: OVCAR-3 ovarian
HL-60(TB) leukemia = test system: HL-60(TB) leukemia
HOP-62 NSCLC = test system: HOP-62 NSCLC
A549 NSCLC = test system: A549 NSCLC
DU-145 prostate = test system: DU-145 prostate
PC-3 prostate = test system: PC-3 prostate
KM12 colon = test system: KM12 colon
LOX IMVI melanoma = test system: LOX IMVI melanoma
NCI-H226 lung = test system: NCI-H226 lung
HT29 colon = test system: HT29 colon
SNB-19 CNS = test system: SNB-19 CNS
U251 CNS = test system: U251 CNS
IGROV1 ovarian = test system: IGROV1 ovarian
SK-OV-3 ovarian = test system: SK-OV-3 ovarian
SF-268 CNS = test system: SF-268 CNS

With `O=P(O)(O)OC1C(OP(=O)(O)O)C(OP(=O)(O)O)C(OP(=O)(O)O)C(OP(=O)(O)O)C1OP(=O)(O)O` (stereo not drawn) the GI50 (SK-MEL-28 melanoma) was > 2 mM, the TGI (SK-MEL-28 melanoma) was > 2 mM and the GI50 (OVCAR-8 ovarian) was > 2 mM. The TGI (OVCAR-8 ovarian) was > 2 mM, the GI50 (NCI/ADR-RES ovarian) was > 2 mM and the TGI (NCI/ADR-RES ovarian) was > 2 mM. The GI50 (NCI-H23 lung) was > 2 mM, the TGI (NCI-H23 lung) was > 2 mM and the GI50 (TK-10 renal) was > 1.36 mM. For the same compound, the TGI (TK-10 renal) was > 2 mM, the GI50 (T-47D breast) was > 2 mM and the TGI (T-47D breast) was > 2 mM. For the same compound, the GI50 (MCF7 breast) was > 2 mM, the TGI (MCF7 breast) was > 2 mM and the GI50 (M14 melanoma) was > 2 mM. For the same compound, the TGI (M14 melanoma) was > 2 mM, the GI50 (SF-539 CNS) was > 2 mM and the TGI (SF-539 CNS) was > 2 mM. The GI50 (MALME-3M melanoma) was > 2 mM, the TGI (MALME-3M melanoma) was > 2 mM and the GI50 (MDA-MB-231 breast) was > 2 mM. The TGI (MDA-MB-231 breast) was > 2 mM, the GI50 (BT-549 breast) was > 1.69 mM and the TGI (BT-549 breast) was > 2 mM. The GI50 (SNB-75 CNS) was > 1.12 mM, the TGI (SNB-75 CNS) was > 2 mM and the GI50 (OVCAR-4 ovarian) was > 100 µM. The TGI (OVCAR-4 ovarian) was > 2 mM, the GI50 (K-562 leukemia) was > 2 mM and the TGI (K-562 leukemia) was > 2 mM. For the same compound, the GI50 (HCT-15 colon) was > 2 mM, the TGI (HCT-15 colon) was > 2 mM and the GI50 (SN12C renal) was > 2 mM. The TGI (SN12C renal) was > 2 mM, the GI50 (RPMI-8226 leukemia) was > 2 mM and the TGI (RPMI-8226 leukemia) was > 2 mM. The GI50 (UACC-62 melanoma) was > 2 mM, the TGI (UACC-62 melanoma) was > 2 mM and the GI50 (MOLT-4 leukemia) was > 1.51 mM. The TGI (MOLT-4 leukemia) was > 2 mM, the GI50 (UO-31 renal) was > 2 mM and the TGI (UO-31 renal) was > 2 mM. The GI50 (786-0 renal) was > 2 mM, the TGI (786-0 renal) was > 2 mM and the GI50 (SK-MEL-5 melanoma) was > 1.56 mM. The TGI (SK-MEL-5 melanoma) was > 2 mM, the GI50 (RXF 393 renal) was > 0.5 mM and 1.72 mM and the TGI (RXF 393 renal) was > 2 mM. For the same compound, the GI50 (CAKI-1 renal) was > 1.56 mM, the TGI (CAKI-1 renal) was > 2 mM and the GI50 (MDA-MB-435) was > 1.77 mM. For the same compound, the TGI (MDA-MB-435) was > 2 mM, the GI50 (NCI-H460 lung) was > 2 mM and the TGI (NCI-H460 lung) was > 2 mM. The GI50 (SR leukemia) was > 1.78 mM, the TGI (SR leukemia) was > 2 mM and the GI50 (OVCAR-5 ovarian) was > 2 mM. The TGI (OVCAR-5 ovarian) was > 2 mM, the GI50 (MDA-N) was > 2 mM and the TGI (MDA-N) was > 2 mM. The GI50 (HOP-92 NSCLC) was > 100 µM, the TGI (HOP-92 NSCLC) was > 1.88 mM and the GI50 (ACHN renal) was > 1.7 mM. For the same compound, the TGI (ACHN renal) was > 2 mM, the GI50 (A498 renal) was > 0.5 mM and 1.19 mM and the TGI (A498 renal) was > 2 mM. For the same compound, the GI50 (CCRF-CEM leukemia) was > 100 µM, the TGI (CCRF-CEM leukemia) was > 2 mM and the GI50 (SF-295 CNS) was > 2 mM. For the same compound, the TGI (SF-295 CNS) was > 2 mM, the GI50 (SW-620 colon) was > 2 mM and the TGI (SW-620 colon) was > 2 mM. The GI50 (HCT-116 colon) was > 2 mM, the TGI (HCT-116 colon) was > 2 mM and the GI50 (HS 578T breast) was > 2 mM. The TGI (HS 578T breast) was > 2 mM, the GI50 (COLO 205 colon) was > 0.1 mM and > 0.5 mM and 1.94 mM and the TGI (COLO 205 colon) was > 2 mM. The GI50 (EKVX NSCLC) was > 100 µM, the TGI (EKVX NSCLC) was > 2 mM and the GI50 (HCC-2998 colon) was > 2 mM. For the same compound, the TGI (HCC-2998 colon) was > 2 mM, the GI50 (UACC-257 melanoma) was > 2 mM and the TGI (UACC-257 melanoma) was > 2 mM. The GI50 (NCI-H522 lung) was > 2 mM, the TGI (NCI-H522 lung) was > 2 mM and the GI50 (SK-MEL-2 melanoma) was > 2 mM. The TGI (SK-MEL-2 melanoma) was > 2 mM, the GI50 (OVCAR-3 ovarian) was > 2 mM and the TGI (OVCAR-3 ovarian) was > 2 mM. For the same compound, the GI50 (HL-60(TB) leukemia) was > 2 mM, the TGI (HL-60(TB) leukemia) was > 2 mM and the GI50 (HOP-62 NSCLC) was > 2 mM. The TGI (HOP-62 NSCLC) was > 2 mM, the GI50 (A549 NSCLC) was > 2 mM and the TGI (A549 NSCLC) was > 2 mM. The GI50 (DU-145 prostate) was > 2 mM, the TGI (DU-145 prostate) was > 2 mM and the GI50 (PC-3 prostate) was > 2 mM. The TGI (PC-3 prostate) was > 2 mM, the GI50 (KM12 colon) was > 1.19 mM and the TGI (KM12 colon) was > 2 mM. For the same compound, the GI50 (LOX IMVI melanoma) was > 2 mM, the TGI (LOX IMVI melanoma) was > 2 mM and the GI50 (NCI-H226 lung) was > 1.07 mM. For the same compound, the TGI (NCI-H226 lung) was > 1.85 mM, the GI50 (HT29 colon) was > 2 mM and the TGI (HT29 colon) was > 2 mM. For the same compound, the GI50 (SNB-19 CNS) was > 2 mM, the TGI (SNB-19 CNS) was > 2 mM and the GI50 (U251 CNS) was > 2 mM. For the same compound, the TGI (U251 CNS) was > 2 mM, the GI50 (IGROV1 ovarian) was > 2 mM and the TGI (IGROV1 ovarian) was > 2 mM. The GI50 (SK-OV-3 ovarian) was > 2 mM, the TGI (SK-OV-3 ovarian) was > 2 mM and the GI50 (SF-268 CNS) was > 2 mM. The TGI (SF-268 CNS) was > 2 mM.
